Measured values: patent US10196417B2, “Baicalin magnesium compound and its preparation method and application” (CHENGDE MEDICAL UNIVERSITY, priority 2016, dated 2019)
Converted amounts (≈) assume the structure as drawn. Marks after values point to notes of the source that are not given here.

How the values were obtained:
[1] = test system: Human liver cancer HepG2 cells; experiment: Anti-tumor activity: apoptosis of HepG2 cells by flow cytometry; assay type: cell-based; conditions: 48 hours
Experimental: Human liver cancer HepG2 cells were prepared and then cultured in an incubator containing 5% of CO2 at 37° C. using a DMEN culture medium containing 10% of fetal bovine serum, penicillin (100 μmol·L^−1) and streptomycin (1 mg·mL^−1). HepG2 cells in logarithmic phase were diluted with RPMI-1640 culture medium containing 10% of fetal bovine serum to a concentration of 1×10^4 per mL; then inoculated into a 96-well plate at 100 μL per well; and then cultured in an incubator having a relative humidity of 90% and 5% of CO2 at 37° C. The culture medium was discarded after the HepG2 cells were cultured for 24 hours. The culture medium containing baicalin and baicalin magnesium (equivalent to the concentration of baicalin (5 μg/mL, 10 μg/mL and 20 μg/mL)) were added in wells respectively with each concentration in four parallel wells. And at the same time, wells having culture medium without cells were used as a blank control group, and wells having cells without drug were used as a negative control group. The groups were continuously cultured for 48 hours to collect the cells. The cells were washed with PBS solution 2 times, and detected with a flow cytometer by FACS for parameter acquisition and data analysis.

[2] = test system: acetic acid-induced pain in mice; experiment: Analgesia: acetic acid-induced writhing; assay type: in vivo; conditions: 0.067 g/kg (baicalin equivalent) intragastric once per day 7 days; for Analgesia %: vs blank control; for Number of writhing: writhing within 15 minutes after 0.6% acetic acid i.p.
Experimental: 40 mice, 20-22 g in weight, were randomly divided into 4 groups each having 10 mice, a baicalin (0.067 g/kg) group, a baicalin magnesium (equivalent to 0.067 g/kg of baicalin) group, a blank control group (administrated with normal saline), and an aspirin positive control group (0.15 g/kg). The mice were intragastrically administrated once per day for successive 7 days. After 30 minutes of final administration, the mice were intraperitoneally injected with 0.6% acetic acid saline solution at a dose of 0.2 mL/10 g; the number of writhing responses in the mice within 15 minutes was counted. Analgesia % was calculated as follows: Analgesia %=[(average number of writhing responses of the blank control group−average number of writhing responses of the drug administration group)/average number of writhing responses of the blank control group]×100%. Single-factor variance analysis was performed on data by the SPSS19.0 statistical software, and P<0.05 was of statistical significance.

[3] = test system: streptozotocin-induced diabetes rats (high-fat diet); experiment: Antidiabetic effect: blood glucose in streptozotocin-induced diabetes; assay type: in vivo, SD male rats; conditions: 80 mg/kg baicalin or equivalent intragastric daily
Experimental: Healthy SD male rats aged 6 to 8 weeks were randomly divided into 4 groups, a high-fat diet control group, a diabetes control group, a baicalin treatment group and a baicalin magnesium treatment group. The rats were raised for 1 week in advance. In the second week, all rats were fed with high-fat diet. After six weeks, the rats were fasted but with water for 12 hours. For the diabetes control group, the baicalin treatment group and the baicalin magnesium treatment group, rats were administrated by tail vein injection with 45 mg/kg of streptozotocin prepared from citrate buffer solution (pH=4.5). After 3 to 7 days, the fasting blood glucose was measured. The blood glucose level greater than 13 mmol/L was a criterion for the successful diabetes rate model. The rats in the high-fat diet control group were administrated by tail vein injection with the citrate buffer solution. After the model was built, the rats were intragastrically administrated in the morning every day. The rats in the baicalin group were administrated with baicalin at a dose of 80 mg/kg; the rates in the […] were administrated with baicalin magnesium at a dose equivalent to 80 mg/kg of baicalin; and the rats in the diabetes model group and the high-fat diet control group were intragastrically administrated the same volume of solvent once every day and for successive 6 weeks. After the molding and the administration, the blood glucose was measured in the third week and the sixth week. Single-factor variance analysis was performed on data by SPSS19.0 statistical software, and P<0.05 was of statistical significance.

[4] = Water solubility at 37° C. (equilibrium solubility method); assay type: physicochemical; conditions: for solubility: 37 °C, thermodynamic from solid
Experimental: The solubility of the baicalin and the solubility of the baicalin magnesium in water at 37° C. were measured by a conventional solubility measurement method.

[5] = Pharmacokinetic experiments (no data given); assay type: in vivo; conditions: in words only
[6] = HepG2, 5 μg/mL (baicalin equivalent)
[7] = HepG2, 10 μg/mL (baicalin equivalent)
[8] = HepG2, 20 μg/mL (baicalin equivalent)
[9] = 0 (after the molding, start of administration)

Row | Compound | Apoptosis % [1, 6] [%] | Apoptosis % [1, 7] [%] | Apoptosis % [1, 8] | Analgesia % [2] | Number of writhing [2] | Blood Glucose [3, 9] [mmol/L] | Blood Glucose ([3]; 3 weeks) | Blood Glucose ([3]; 6 weeks) | Water solubility relative to the solubility of the baicalin ([4]; 37° C.) [times] | solubility [4] [mg/mL] | Adsorption rate compared to baicalin [5]
1 | O=C(O)C1O[C@@H](Oc2cc3oc(-c4ccccc4)cc(=O)c3c(O)c2O)C(O)[C@@H](O)[C@@H]1O (some centres unmarked) [Baicalin Magnesium, baicalin magnesium] | 11.67 ± 0.65 | 23.67 ± 5.21 | 33.12 ± 1.58*^Δ % | 60.6*^Δ % | 10.43 ± 3.56*^Δ | 22.32 ± 2.23 | 19.46 ± 3.59*^Δ# mmol/L | 17.58 ± 2.6*^Δ# mmol/L | 2225 | 129 (≈ 289 mM) | faster adsorption rate
2 | O=C(O)[C@H]1O[C@@H](Oc2cc3oc(-c4ccccc4)cc(=O)c3c(O)c2O)[C@H](O)[C@@H](O)[C@@H]1O [Baicalin] | 9.57 ± 0.56 | 21.45 ± 1.67 | 30.67 ± 3.45 % | 33.7* % | 17.54 ± 4.44 | 23.54 ± 2.5 | 21.45 ± 2.6 mmol/L | 20.14 ± 2.6 mmol/L |  | 0.058 (≈ 0.13 mM) | 
